The values that follow are results of earlier work, collected in patent publication US7390922B2, “Phenolic acid salts of gabapentin in liquid and/or semi-solid dosage forms and methods of use” (Kiel Laboratories, Inc., priority 2003, dated 2008).

The structures appear in SMILES notation.

For data set [1] the following is noted: in water and across a wide range of pH.
For data set [2], the target named is gb1a-gb^2 heterodimer and post-synaptic GABAB receptor (Homo sapiens, UniProt Q9UBS5).
Sequence of gb1a-gb^2 heterodimer and post-synaptic GABAB receptor (Q9UBS5 15-961 limits assumed): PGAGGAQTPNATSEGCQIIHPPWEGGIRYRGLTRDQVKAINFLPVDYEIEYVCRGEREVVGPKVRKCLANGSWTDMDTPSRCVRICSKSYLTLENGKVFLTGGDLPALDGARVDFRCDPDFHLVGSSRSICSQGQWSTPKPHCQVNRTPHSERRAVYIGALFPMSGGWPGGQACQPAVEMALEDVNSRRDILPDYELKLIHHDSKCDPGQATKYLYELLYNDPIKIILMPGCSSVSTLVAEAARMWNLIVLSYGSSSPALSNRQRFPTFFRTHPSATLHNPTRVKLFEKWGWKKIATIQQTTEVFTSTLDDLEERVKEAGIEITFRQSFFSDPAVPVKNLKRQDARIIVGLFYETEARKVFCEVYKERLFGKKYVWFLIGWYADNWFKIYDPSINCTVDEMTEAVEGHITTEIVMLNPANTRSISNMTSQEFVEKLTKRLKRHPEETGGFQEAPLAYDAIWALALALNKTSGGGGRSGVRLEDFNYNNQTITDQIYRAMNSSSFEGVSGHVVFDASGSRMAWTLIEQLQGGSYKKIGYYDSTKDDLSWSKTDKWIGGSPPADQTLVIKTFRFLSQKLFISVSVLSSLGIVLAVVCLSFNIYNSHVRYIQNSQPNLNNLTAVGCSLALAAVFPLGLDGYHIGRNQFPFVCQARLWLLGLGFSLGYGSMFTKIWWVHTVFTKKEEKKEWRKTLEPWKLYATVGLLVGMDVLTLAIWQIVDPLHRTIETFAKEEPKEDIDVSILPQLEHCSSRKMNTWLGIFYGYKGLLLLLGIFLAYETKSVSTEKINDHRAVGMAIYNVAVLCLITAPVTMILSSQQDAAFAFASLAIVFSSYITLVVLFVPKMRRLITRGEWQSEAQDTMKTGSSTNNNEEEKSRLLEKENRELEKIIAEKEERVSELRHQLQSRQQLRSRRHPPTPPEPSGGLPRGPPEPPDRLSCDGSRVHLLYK
Sequence of gb1a-gb^2 heterodimer and post-synaptic GABAB receptor (O75899 42-941 partner): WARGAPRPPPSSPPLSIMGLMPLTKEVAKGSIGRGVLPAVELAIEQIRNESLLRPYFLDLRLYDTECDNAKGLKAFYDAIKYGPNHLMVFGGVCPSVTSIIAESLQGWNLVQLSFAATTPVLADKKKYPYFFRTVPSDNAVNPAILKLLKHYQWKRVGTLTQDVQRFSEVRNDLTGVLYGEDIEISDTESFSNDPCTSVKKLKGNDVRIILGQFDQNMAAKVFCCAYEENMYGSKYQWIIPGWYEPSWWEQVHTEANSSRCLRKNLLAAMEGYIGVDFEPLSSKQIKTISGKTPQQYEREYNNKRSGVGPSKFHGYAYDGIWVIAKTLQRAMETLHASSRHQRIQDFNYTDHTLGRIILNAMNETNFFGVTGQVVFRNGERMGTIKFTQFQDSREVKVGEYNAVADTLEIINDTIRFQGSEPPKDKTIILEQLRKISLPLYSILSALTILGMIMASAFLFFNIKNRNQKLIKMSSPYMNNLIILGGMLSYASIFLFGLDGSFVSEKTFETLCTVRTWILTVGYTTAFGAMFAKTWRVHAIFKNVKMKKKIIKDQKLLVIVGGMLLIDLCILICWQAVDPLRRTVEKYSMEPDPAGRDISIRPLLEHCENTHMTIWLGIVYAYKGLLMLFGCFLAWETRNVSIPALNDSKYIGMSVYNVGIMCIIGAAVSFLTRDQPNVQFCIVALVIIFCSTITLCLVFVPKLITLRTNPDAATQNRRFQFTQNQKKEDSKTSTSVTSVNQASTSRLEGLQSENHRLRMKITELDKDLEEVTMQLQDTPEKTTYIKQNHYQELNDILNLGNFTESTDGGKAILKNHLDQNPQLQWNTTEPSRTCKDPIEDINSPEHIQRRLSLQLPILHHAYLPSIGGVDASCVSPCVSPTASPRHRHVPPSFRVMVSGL

Turning to `NCC1(CC(=O)O)CCCCC1` [gabapentin, l-(amino methyl) cyclohexaneacetic acid], the solubility entry in data set [1] was “freely soluble in water”. Moreover, the receptor activity entry in data set [2] is “selective agonist”. Also, for the setting “adults, post-dose”, the “time of peak plasma gabapentin concentrations” value was 2 to 3 h. For the same compound, the absolute bioavailability result (after administration of 300 mg, dose-dependent) is “approximately 60%”. Besides, under “in vivo”, the metabolism entry is recorded as “is not metabolized”, the plasma protein binding entry is “does not bind to plasma proteins” and the route of elimination result was “eliminated via glomerular filtration”. For the same compound, the blood-brain barrier passage result (unlike GABA) is on record as “able to cross the blood-brain barrier”.
